Experimental data published in patent US20220233512A1, “INHIBITING AN IMMUNE RESPONSE MEDIATED BY ONE OR MORE OF TLR2, RAGE, CCR5, CXCR4 AND CD4” (priority 2020, published 2022).

Tests used:
[1] = molecular target: T1, biotinylated FLNA pentapeptide of positions 2561-2565 (Homo sapiens, UniProt P21333); assay: FITC-NLX-based FLNA screening assay; type: binding; conditions: for Percent inhibition of FITC-NLX binding (preliminary study): 100 nM frozen-stored FITC-NLX, average of two runs
T1 construct: the biotinylated FLNA pentapeptide of positions 2561-2565
Experimental: [50 ml of the peptide solution from B+50 ml binding medium, final concentration for DMSO: 0.5%].
The final assay volume is 100 ml.
The final screening concentration for each new compound is initially 10 mM.
Compounds are tested in triplicate or quadruplicate.

[2] = molecular target: T2, mu opiate receptor (MOR) (Rattus norvegicus, UniProt P33535); assay: MOR agonist activity using [35S]GTPgS binding assay in striatal membranes; type: biochemical; set-up: MOR agonist activity (preliminary study): unit of the concentration uncertain; conditions: for MOR agonist activity (preliminary study): average of two runs
T2 construct: from tissue; host or cells: striatum (membrane preparation)
Procedure, shortened: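 Rat striatal membranes incubated 5 min at 30 °C in pH 7.5 HEPES buffer with 100 mM NaCl, 1 mM MgCl2 and 0.5 nM [35S]GTPgS, then 5 min with compound. Gαo-bound [35S]GTPgS isolated by immunoprecipitation and counted by liquid scintillation.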

[3] = molecular target: FLNA interactions with CXCR4, CD4 and CCR5 (Homo sapiens, UniProt P21333); assay: FLNA interactions with CXCR4, CD4 and CCR5 in lymphocytes (western blot); conditions: 1 nM; lymphocytes of Ab42-treated young control subject and of AD patient
[4] = 0.1 μM compound as agonist, Series C-1 table
[5] = 1 μM compound as agonist, Series C-1 table
[6] = 0.1 μM compound as agonist, Series C-2 table
[7] = 1 μM compound as agonist, Series C-2 table

T2 sequence (P33535 whole entry): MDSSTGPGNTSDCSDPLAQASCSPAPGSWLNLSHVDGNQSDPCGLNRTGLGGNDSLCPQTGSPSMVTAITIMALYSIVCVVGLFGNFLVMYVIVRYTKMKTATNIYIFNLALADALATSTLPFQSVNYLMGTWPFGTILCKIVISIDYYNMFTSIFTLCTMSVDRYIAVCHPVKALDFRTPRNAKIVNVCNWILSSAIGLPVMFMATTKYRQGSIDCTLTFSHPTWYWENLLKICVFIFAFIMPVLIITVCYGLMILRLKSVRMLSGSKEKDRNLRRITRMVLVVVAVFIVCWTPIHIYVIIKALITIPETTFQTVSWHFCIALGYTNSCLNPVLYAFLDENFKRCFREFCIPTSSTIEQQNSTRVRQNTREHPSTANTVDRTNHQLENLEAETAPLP
FLNA interactions with CXCR4, CD4 and CCR5, sequence (P21333 2-2647 limits assumed): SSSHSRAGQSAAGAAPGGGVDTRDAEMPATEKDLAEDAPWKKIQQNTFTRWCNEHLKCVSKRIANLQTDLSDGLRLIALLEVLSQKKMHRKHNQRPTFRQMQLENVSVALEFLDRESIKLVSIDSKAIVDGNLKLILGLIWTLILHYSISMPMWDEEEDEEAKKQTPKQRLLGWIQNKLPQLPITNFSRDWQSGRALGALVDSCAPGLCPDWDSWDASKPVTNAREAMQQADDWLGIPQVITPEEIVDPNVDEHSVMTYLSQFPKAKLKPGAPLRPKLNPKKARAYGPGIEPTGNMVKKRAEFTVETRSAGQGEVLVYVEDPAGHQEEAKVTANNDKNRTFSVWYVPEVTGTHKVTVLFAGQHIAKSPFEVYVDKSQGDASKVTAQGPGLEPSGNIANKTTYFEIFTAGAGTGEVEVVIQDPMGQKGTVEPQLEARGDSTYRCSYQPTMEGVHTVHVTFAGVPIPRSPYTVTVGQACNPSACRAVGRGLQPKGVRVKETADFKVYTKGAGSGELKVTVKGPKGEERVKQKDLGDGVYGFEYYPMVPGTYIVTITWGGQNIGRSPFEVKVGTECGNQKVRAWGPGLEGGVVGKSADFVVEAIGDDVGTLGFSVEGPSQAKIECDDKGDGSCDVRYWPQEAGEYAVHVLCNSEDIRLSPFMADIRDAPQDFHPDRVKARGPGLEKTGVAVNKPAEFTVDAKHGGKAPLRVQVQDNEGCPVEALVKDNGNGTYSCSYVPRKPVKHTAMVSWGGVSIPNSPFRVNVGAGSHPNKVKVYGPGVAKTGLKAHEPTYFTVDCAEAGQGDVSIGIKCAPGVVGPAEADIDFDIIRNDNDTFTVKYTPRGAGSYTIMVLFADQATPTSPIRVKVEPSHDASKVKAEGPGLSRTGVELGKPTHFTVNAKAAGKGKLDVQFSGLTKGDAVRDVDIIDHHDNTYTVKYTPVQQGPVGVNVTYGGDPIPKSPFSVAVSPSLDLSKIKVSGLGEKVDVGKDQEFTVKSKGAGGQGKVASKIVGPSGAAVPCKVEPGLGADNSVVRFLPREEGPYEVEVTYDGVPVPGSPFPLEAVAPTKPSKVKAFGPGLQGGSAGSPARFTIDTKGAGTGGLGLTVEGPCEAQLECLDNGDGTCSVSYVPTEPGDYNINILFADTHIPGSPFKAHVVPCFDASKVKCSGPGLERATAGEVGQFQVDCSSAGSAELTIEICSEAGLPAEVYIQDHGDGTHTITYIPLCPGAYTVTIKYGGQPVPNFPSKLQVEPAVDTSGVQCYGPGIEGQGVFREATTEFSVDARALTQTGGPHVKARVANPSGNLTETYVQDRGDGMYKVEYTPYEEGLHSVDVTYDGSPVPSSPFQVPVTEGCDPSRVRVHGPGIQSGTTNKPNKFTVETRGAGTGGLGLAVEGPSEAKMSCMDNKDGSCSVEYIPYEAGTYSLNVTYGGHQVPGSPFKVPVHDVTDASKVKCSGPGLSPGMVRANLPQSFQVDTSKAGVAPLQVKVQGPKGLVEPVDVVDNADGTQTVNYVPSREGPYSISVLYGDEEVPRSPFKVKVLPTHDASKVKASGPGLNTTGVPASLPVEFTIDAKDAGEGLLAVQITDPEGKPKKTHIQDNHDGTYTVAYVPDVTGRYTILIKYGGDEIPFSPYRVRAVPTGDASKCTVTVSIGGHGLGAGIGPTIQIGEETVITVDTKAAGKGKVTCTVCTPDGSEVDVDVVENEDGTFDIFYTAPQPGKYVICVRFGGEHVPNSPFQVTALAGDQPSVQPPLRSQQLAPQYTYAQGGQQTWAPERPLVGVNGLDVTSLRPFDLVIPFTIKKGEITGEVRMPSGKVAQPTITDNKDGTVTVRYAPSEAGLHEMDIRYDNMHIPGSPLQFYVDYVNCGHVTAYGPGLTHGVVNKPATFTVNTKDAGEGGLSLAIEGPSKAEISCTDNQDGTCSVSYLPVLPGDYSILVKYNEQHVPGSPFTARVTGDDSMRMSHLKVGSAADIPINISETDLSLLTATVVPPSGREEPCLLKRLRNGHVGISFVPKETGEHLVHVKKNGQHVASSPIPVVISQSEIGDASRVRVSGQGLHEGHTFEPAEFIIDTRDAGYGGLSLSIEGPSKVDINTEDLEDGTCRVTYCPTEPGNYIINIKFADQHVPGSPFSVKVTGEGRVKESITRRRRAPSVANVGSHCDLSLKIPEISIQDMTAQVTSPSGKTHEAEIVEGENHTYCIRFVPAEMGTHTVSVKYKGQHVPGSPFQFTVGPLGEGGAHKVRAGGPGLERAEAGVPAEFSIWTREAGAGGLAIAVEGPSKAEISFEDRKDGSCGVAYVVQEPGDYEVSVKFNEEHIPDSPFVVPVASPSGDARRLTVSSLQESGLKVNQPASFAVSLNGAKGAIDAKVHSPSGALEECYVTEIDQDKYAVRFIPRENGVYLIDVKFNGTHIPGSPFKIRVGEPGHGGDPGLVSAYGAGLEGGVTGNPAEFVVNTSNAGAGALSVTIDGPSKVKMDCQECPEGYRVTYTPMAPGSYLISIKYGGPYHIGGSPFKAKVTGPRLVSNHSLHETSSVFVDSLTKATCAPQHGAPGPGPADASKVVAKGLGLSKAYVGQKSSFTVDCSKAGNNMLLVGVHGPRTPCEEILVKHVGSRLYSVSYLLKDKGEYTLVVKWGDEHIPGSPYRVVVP

C=CCN1CC[C@]23c4c5ccc(O)c4O[C@H]2C(=O)CC[C@]3(O)[C@H]1C5 [(+) NLX]
Percent inhibition of FITC-NLX binding (preliminary study) ([1]; 0.1 nM compound): 22.7%
Percent inhibition of FITC-NLX binding (preliminary study) ([1]; 1 nM compound): 22.8%
Percent inhibition of FITC-NLX binding (preliminary study) ([1]; 10 nM compound): 23.1%
Percent inhibition of FITC-NLX binding (preliminary study) ([1]; 100 nM compound): 22.8%
Percent inhibition of FITC-NLX binding (preliminary study) ([1]; 1 mM compound): 39.8%

Nc1ccc(C(=O)N2CCC3(CC2)OCCN3S(=O)(=O)c2ccc(N)cc2)cc1 [Compound C0023]
inhibition at 0.01 µM ([1]; 0.01 μM compound, C-Series-1 table, 10 nM FITC-NLX, read-out: Percent Binding Inhibition): 35.9%
inhibition at 0.1 µM ([1]; 0.1 μM compound, C-Series-1 table, 10 nM FITC-NLX, read-out: Percent Binding Inhibition): 41.7%
inhibition at 1 µM ([1]; 1 μM compound, C-Series-1 table, 10 nM FITC-NLX, read-out: Percent Binding Inhibition): 47.2%
MOR agonist activity ([35S]GTPgS binding to Gao) [2, 4]: 153.2%
MOR agonist activity ([35S]GTPgS binding to Gao) ([2]; 1 μM + BFNA, Series C-1 table): 23.2%
MOR agonist activity ([35S]GTPgS binding to Gao) [2, 5]: 233.7%

O=S(=O)(c1csc2ccccc12)N1CCC2(CC1)OCCN2S(=O)(=O)c1csc2ccccc12 [Compound C0150M]
MOR agonist activity ([35S]GTPgS binding to Gao) [2, 4]: 167.1%
MOR agonist activity ([35S]GTPgS binding to Gao) ([2]; 1 μM + BFNA, Series C-1 table): 93.4%
MOR agonist activity ([35S]GTPgS binding to Gao) [2, 5]: 423.1%

COc1ccc(NC(=O)N2CCC3(CC2)NCCO3)cc1 [Compound C0151M-2]
MOR agonist activity ([35S]GTPgS binding to Gao) [2, 6]: 346.8%
MOR agonist activity ([35S]GTPgS binding to Gao) ([2]; 1 μM + BFNA, Series C-2 table): 212.8%
MOR agonist activity ([35S]GTPgS binding to Gao) [2, 7]: 397.6%

COc1ccc(NC(=O)N2CCC3(CC2)OCCN3C(=O)Nc2ccc(OC)cc2)cc1 [Compound C0151M]
MOR agonist activity ([35S]GTPgS binding to Gao) [2, 4]: 346.8%
MOR agonist activity ([35S]GTPgS binding to Gao) ([2]; 1 μM + BFNA, Series C-1 table): 212.8%
MOR agonist activity ([35S]GTPgS binding to Gao) [2, 5]: 397.6%

C[C@@H](NC(=O)[C@@H](N)Cc1ccc(O)cc1)C(=O)NCC(=O)N(C)[C@@H](Cc1ccccc1)C(=O)NCCO [DAMGO, [D-Ala2, N-MePhe4, Gly-ol]-enkephalin, reference compound]
MOR agonist activity ([35S]GTPgS binding to Gao) [2, 4]: 168.5%
MOR agonist activity ([35S]GTPgS binding to Gao) [2, 6]: 168.5%
MOR agonist activity ([35S]GTPgS binding to Gao) ([2]; 1 μM + BFNA, Series C-1 table): 53.2%
MOR agonist activity ([35S]GTPgS binding to Gao) ([2]; 1 μM + BFNA, Series C-2 table): 53.2%
MOR agonist activity ([35S]GTPgS binding to Gao) [2, 5]: 266.1%
MOR agonist activity ([35S]GTPgS binding to Gao) [2, 7]: 266.1%
MOR agonist activity (preliminary study) ([2]; 1 mM + bNFA): 56.8%
MOR agonist activity (preliminary study) ([2]; 0.1 (unit uncertain) compound as agonist): 144.7%
MOR agonist activity (preliminary study) ([2]; 1 (unit uncertain) compound as agonist): 233.4%

C=CCN1CC[C@]23c4c5ccc(O)c4O[C@H]2C(=O)CC[C@@]3(O)[C@H]1C5 [Naloxone, naloxone, reference compound]
FLNA linkages with CXCR4, CD4 and CCR5 (in words) [3]: reduced these linkages

COc1ccc(S(=O)(=O)N2CCSC23CCNCC3)cc1 [S-C0027]
MOR agonist activity ([35S]GTPgS binding to Gao) [2, 6]: 156.2%
MOR agonist activity ([35S]GTPgS binding to Gao) ([2]; 1 μM + BFNA, Series C-2 table): 56.2%
MOR agonist activity ([35S]GTPgS binding to Gao) [2, 7]: 286.8%
